Measurements as given in patent US20240246968A1, “SMALL MOLECULE INHIBITORS OF KRAS G12C MUTANT” (Merck Sharp & Dohme LLC, priority 2021, published 2024).

Columns and labels:
[1] = biological target: biotinylated KRAS G12C protein (GMP-PNP loaded) and GST-tagged Ras binding domain of c-RAF (Homo sapiens, UniProt P01116, C118S/C51S/C80L/G12C); assay: RAS:RAF-RBD binding assay (TR-FRET); type: biochemical; settings: 30-minute incubation with KRAS G12C, then RAF-RBD 60 minute
[2] = biological target: Gppcp-bound recombinant K-Ras4B G12C mutant protein (amino acids 1-169, C51S/C80L/C118S) (Homo sapiens, UniProt P01116, C118S/C51S/C80L/G12C); assay: KRASG12C binding assay (LC-MS, compound binding rate); settings: test compound final concentration 0.5 μM, 25° C., 1 hour
How it was run: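 Covalent adduct formation measured by deconvoluted intact-mass LC-MS after 1 h at 25 °C with compound at 0.5 μM final and 50 nM Gppcp-loaded KRAS G12C (residues 1-169, C51S/C80L/C118S). Buffer: TBS, 0.1 mM TCEP, 0.25 mM MgCl2, 50 μM Gppcp. Binding % = one-molecule adduct/(unbound + all adducts), binned A ≥80, B 60–80, C 40–60, D 20–40, E <20.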

[3] = biological target: T1, interaction between recombinant K-Ras4B G12C mutant protein and cRAF RAS-binding domain (cRAF-RBD) (Homo sapiens, UniProt P01116, G12C); assay: Inhibitory activity on interaction between KRAS G12C and cRAF (Alpha technology); type: biochemical; settings: GMPPNP-bound KRAS G12C incubated with compound at 25° C. for 1 hour, then cRAF-RBD; Alpha signal
T1 construct: made in house; host or cells: E. coli
How it was run: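 Alpha readout of cRAF-RBD (aa 50-132) binding to KRAS G12C (aa 1-169) after 1.5 h RT, following 1 h, 25° C compound preincubation with GMPPNP-bound protein (pH 7.5 Tris, 1 mM MgCl2, TCEP, Tween 20). IC50 fitted from titrations, with GDP-bound KRAS as 100% and DMSO as 0% inhibition.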

[4] = tested on: MIA PaCa-2 cells; assay: Growth inhibition activity on KRAS-G12C mutant cell line (MIA PaCa-2), CellTiter-Glo 3D; type: cell-based, human; settings: Homo sapiens, MIA PaCa-2, 72 h, MIA PaCa-2, 3-day culture with compound
How it was run: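 Luminescence readout (CellTiter-Glo 3D) after 3 days of compound treatment at 37 °C, 5% CO2, 0.2% final DMSO, gave % growth inhibition versus no-compound wells, from which IC50 (nM) was derived; cells had been plated in 10% FBS RPMI1640 one day before dosing.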

Compound | IC50 [1] | binding rate [2] | IC50 [3] | IC50 [4]
COc1c(-c2cccc3c2ccn3C(=O)c2cc(F)c(NC(=O)/C=C/CN[C@H]3CCOC3)c(F)c2)c(C(F)(F)F)cc2c1nc(C)n2C (single isomer, unassigned) [Example 116, mono(2,2,2-trifluoroacetate)] | 14.8 nM | – | – | –
COc1c(-c2cccn3c(C(=O)c4cc(F)c(NC(=O)/C=C/CN[C@H]5CC[C@H](OC)CC5)c(F)c4)ccc23)c(C(F)(F)F)cc2c1cnn2C (single isomer, unassigned) [Example 117, (E)-N-(2,6-difluoro-4-(8-(4-methoxy-1-methyl-6-(trifluoromethyl)-1H-indazol-5-yl)indolizine-3-carbonyl)phenyl)-4-(((1r,4r)-4-methoxycyclohexyl)amino)but-2-enamide] | 56.5 nM | – | – | –
CO[C@H]1CC[C@H](NC/C=C/C(=O)Nc2c(F)cc(C(=O)c3ccc4c(-c5c(C(F)(F)F)cc6c(cnn6C)c5Cl)cccn34)cc2F)CC1 (single isomer, unassigned) [Example 118, (E)-N-(4-(8-(4-chloro-1-methyl-6-(trifluoromethyl)-1H-indazol-5-yl)indolizine-3-carbonyl)-2,6-difluorophenyl)-4-(((1r,4r)-4-methoxycyclohexyl)amino)but-2-enamide] | 461 nM | – | – | –
Cc1c2cc(C(F)(F)F)c(-c3cccn4c(C(=O)c5cc(F)c(NC(=O)/C=C/CNC6(C)COC6)c(F)c5)ccc34)c(O)c2nn1C (single isomer, unassigned) [Example 123, (E)-N-(4-((2,6-difluoro-4-(8-(7-hydroxy-2,3-dimethyl-5-(trifluoromethyl)-2H-indazol-6-yl)indolizine-3-carbonyl)phenyl)amino)-4-oxobut-2-en-1-yl)-3-methyloxetan-3-aminium 2,2,2-trifluoroacetate] | 78.4 nM | – | – | –
Cc1nc2c(Cl)c(-c3cccn4c(C(=O)c5cc(F)c(NC(=O)/C=C/CNC6(C)CCOC6)c(F)c5)ccc34)c(C(F)(F)F)cc2n1C (single isomer, unassigned) [Example 131a, (E)-N-(4-(8-(4-chloro-1,2-dimethyl-6-(trifluoromethyl)-1H-benzo[d]imidazol-5-yl)indolizine-3-carbonyl)-2,6-difluorophenyl)-4-((3-methyltetrahydrofuran-3-yl)amino)but-2-enamide] | 13.4 nM | – | – | –
Cc1nc2c(Cl)c(-c3cccn4c(C(=O)c5cc(F)c(NC(=O)/C=C/CNC6(C)CCOC6)c(F)c5)ccc34)c(C(F)(F)F)cc2n1C (single isomer, unassigned) [Example 131b, (E)-N-(4-(8-(4-chloro-1,2-dimethyl-6-(trifluoromethyl)-1H-benzo[d]imidazol-5-yl)indolizine-3-carbonyl)-2,6-difluorophenyl)-4-((3-methyltetrahydrofuran-3-yl)amino)but-2-enamide] | 12.4 nM | – | – | –
CO[C@H]1CC[C@H](NC/C=C/C(=O)Nc2c(F)cc(C(=O)c3cc(C(N)=O)c4c(-c5c(C)cc6c(nc(C)n6C)c5Cl)cccn34)cc2F)CC1 [Example 107, 8-(4-chloro-1,2,6-trimethyl-1H-benzo[d]imidazol-5-yl)-3-(3,5-difluoro-4-((E)-4-(((1r,4r)-4-methoxycyclohexyl)amino)but-2-enamido)benzoyl)indolizine-1-carboxamide] | – | A (A binding rate of 80% or more is rated “A”) | 37.6 nM | 569 nM
CO[C@H]1CC[C@H](NC/C=C/C(=O)Nc2c(F)cc(C(=O)c3cc(CC#N)c4c(-c5c(C)cc6c(nc(C)n6C)c5Cl)cccn34)cc2F)CC1 [Example 108, (E)-N-(4-(8-(4-chloro-1,2,6-trimethyl-1H-benzo[d]imidazol-5-yl)-1-(cyanomethyl)indolizine-3-carbonyl)-2,6-difluorophenyl)-4-(((1r,4r)-4-methoxycyclohexyl)amino)but-2-enamide] | – | A (A binding rate of 80% or more is rated “A”) | 40.5 nM | 77.7 nM
CO[C@H]1CC[C@H](NC/C=C/C(=O)Nc2c(F)cc(C(=O)c3ccc4c(-c5cc6[nH]c(=O)n(C)c6cc5C(F)(F)F)cccn34)cc2F)CC1 [Example 110, (E)-N-(2,6-difluoro-4-(8(1-methyl-2-oxo-6-(trifluoromethyl)-2,3-dihydro-1H-benzo[d]imidazol-5-yl)indolizine-3-carbonyl)phenyl)-4-(((1r,4r)-4-methoxycyclohexyl)amino)but-2-enamide] | – | A (A binding rate of 80% or more is rated “A”) | 80.7 nM | 182 nM
COCCn1c(C)nc2c(F)c(-c3cccn4c(C(=O)c5cc(F)c(NC(=O)/C=C/CNC6(C)CC6)c(F)c5)ccc34)c(OC)cc21 [Example 113, (E)-N-(2,6-difluoro-4-(8-(4-fluoro-6-methoxy-1-(2-methoxyethyl)-2-methyl-1H-benzo[d]imidazol-5-yl)indolizine-3-carbonyl)phenyl)-4-((1-methylcyclopropyl)amino)but-2-enamide] | – | A (A binding rate of 80% or more is rated “A”) | 44.9 nM | 55.9 nM
COc1cc2c(c(F)c1-c1cccn3c(C(=O)c4cc(F)c(NC(=O)/C=C/CNC5(C)CC5)c(F)c4)ccc13)c(=O)ncn2C [Example 114] | – | A (A binding rate of 80% or more is rated “A”) | 18.9 nM | 1070 nM
CO[C@H]1CC[C@H](NC/C=C/C(=O)Nc2c(F)cc(C(=O)c3ccc4c(-c5cc6nc(C)n(C)c6cc5C(F)(F)F)nccn34)cc2F)CC1 [Example 115, (E)-N-(4-(1-(1,2-dimethyl-6-(trifluoromethyl)-1H-benzo[d]imidazol-5-yl)pyrrolo[1,2-a]pyrazine-6-carbonyl)-2,6-difluorophenyl)-4-(((1r,4r)-4-methoxycyclohexyl)amino)but-2-enamide] | – | B (a binding rate of 60% or more and less than 80% is rated “B”) | 452 nM | 248 nM
CO[C@H]1CC[C@H](NC/C=C/C(=O)Nc2c(F)cc(C(=O)c3ccc4c(-c5cc6ncccc6cc5C(F)(F)F)cccn34)cc2F)CC1 [Example 120, mono(7-(3-(3,5-difluoro-4-((E)-4-(((1r,4r)-4-methoxycyclohexyl)ammonio)but-2-enamido)benzoyl)indolizin-8-yl)-6-(trifluoromethyl)quinolin-1-ium) mono(2,2,2-trifluoroacetate)] | 482 nM | – | – | –
CO[C@H]1CC[C@H](NC/C=C/C(=O)Nc2c(F)cc(C(=O)c3ccc4c(-c5cc6c(cc5C(F)(F)F)CCN(C)C6=O)cccn34)cc2F)CC1 [Example 121, (1r,4r)-N-((E)-4-((2,6-difluoro-4-(8-(2-methyl-1-oxo-6-(trifluoromethyl)-1,2,3,4-tetrahydroisoquinolin-7-yl)indolizine-3-carbonyl)phenyl)amino)-4-oxobut-2-en-1-yl)-4-methoxycyclohexan-1-aminium 2,2,2-trifluoroacetate] | 168 nM | – | – | –
CO[C@H]1CC[C@H](NC/C=C/C(=O)Nc2c(F)cc(C(=O)c3ccc4c(-c5cc6c(=O)n(C)ccc6cc5C(F)(F)F)cccn34)cc2F)CC1 [Example 125, (1r,4r)-N-((E)-4-((2,6-difluoro-4-(8-(2-methyl-1-oxo-6-(trifluoromethyl)-1,2-dihydroisoquinolin-7-yl)indolizine-3-carbonyl)phenyl)amino)-4-oxobut-2-en-1-yl)-4-methoxycyclohexan-1-aminium 2,2,2-trifluoroacetate] | 398 nM | – | – | –
